Test results: US6503881B2 (priority 1996, dated 2003)
In brackets after ≈: the same amount, converted by molar mass. Read-outs that look alike come from different tables or passages of the source. Peptide text beside a SMILES is read from it.

Experiments:
[1] = system: microorganisms with acquired resistance
[2] = S. haemolyticus SH8463, pair Erythromycin / MBI 31
[3] = S. haemolyticus SH8472, pair Erythromycin / MBI 31
[4] = S. haemolyticus SH8564, pair Erythromycin / MBI 31
[5] = S. haemolyticus SH8575, pair Erythromycin / MBI 31

CC[C@H]1OC(=O)[C@H](C)[C@@H](O[C@H]2C[C@@](C)(OC)[C@@H](O)[C@H](C)O2)[C@H](C)[C@@H](O[C@@H]2O[C@H](C)C[C@H](N(C)C)[C@H]2O)[C@](C)(O)C[C@@H](C)C(=O)[C@H](C)[C@@H](O)[C@]1(C)O [Erythromycin, reference compound] was tested, and the MIC comb. ([1]; S. aureus SA7609, pair Erythromycin / MBI 26) was 0.5 µg/mL (≈ 0.681 µM), the MIC comb. ([1]; S. aureus SA7795, pair Erythromycin / MBI 26) was 1 µg/mL (≈ 1.36 µM) and the MIC comb. ([1]; S. aureus SA7795, pair Erythromycin / MBI 31) was 4 µg/mL (≈ 5.45 µM). For the same compound, the MIC comb. ([1]; S. aureus SA7796, pair Erythromycin / MBI 26) was 1 µg/mL (≈ 1.36 µM), the MIC comb. ([1]; S. aureus SA7796, pair Erythromycin / MBI 31) was 2 µg/mL (≈ 2.73 µM) and the MIC comb. ([1]; S. aureus SA7818, pair Erythromycin / MBI 31) was 2 µg/mL (≈ 2.73 µM). The MIC comb. ([1]; S. epidermidis SE8410, pair Erythromycin / MBI 26) was 0.5 µg/mL (≈ 0.681 µM), the MIC comb. ([1]; S. epidermidis SE8410, pair Erythromycin / MBI 31) was 0.5 µg/mL (≈ 0.681 µM) and the MIC comb. ([1]; S. epidermidis SE8411, pair Erythromycin / MBI 26) was 0.5 µg/mL (≈ 0.681 µM). For the same compound, the MIC comb. ([1]; S. epidermidis SE8411, pair Erythromycin / MBI 31) was 0.5 µg/mL (≈ 0.681 µM), the MIC comb. ([1]; S. epidermidis SE8503, pair Erythromycin / MBI 26) was 0.5 µg/mL (≈ 0.681 µM) and the MIC comb. ([1]; S. epidermidis SE8503, pair Erythromycin / MBI 31) was 0.5 µg/mL (≈ 0.681 µM). The MIC comb. ([1]; S. epidermidis SE8565, pair Erythromycin / MBI 26) was 0.5 µg/mL (≈ 0.681 µM), the MIC comb. ([1]; S. epidermidis SE8565, pair Erythromycin / MBI 31) was 0.5 µg/mL (≈ 0.681 µM) and the MIC comb. ([1]; S. haemolyticus SH8463, pair Erythromycin / MBI 26) was 0.5 µg/mL (≈ 0.681 µM). It also gave an MIC comb. [1, 2] of 0.5 µg/mL (≈ 0.681 µM), an MIC comb. ([1]; S. haemolyticus SH8472, pair Erythromycin / MBI 26) of 0.5 µg/mL (≈ 0.681 µM) and an MIC comb. [1, 3] of 0.5 µg/mL (≈ 0.681 µM). It also gave an MIC comb. [1, 4] of 2 µg/mL (≈ 2.73 µM), an MIC comb. ([1]; S. haemolyticus SH8575, pair Erythromycin / MBI 26) of 2 µg/mL (≈ 2.73 µM) and an MIC comb. [1, 5] of 2 µg/mL (≈ 2.73 µM). The MIC comb. ([1]; S. haemolyticus SH8578, pair Erythromycin / MBI 26) was 0.5 µg/mL (≈ 0.681 µM), the MIC comb. ([1]; S. haemolyticus SH8578, pair Erythromycin / MBI 31) was 0.5 µg/mL (≈ 0.681 µM) and the MIC comb. ([1]; S. haemolyticus SH8597, pair Erythromycin / MBI 26) was 0.5 µg/mL (≈ 0.681 µM).
With CC[C@H](C)[C@H](NC(=O)[C@H](CC(C)C)NC(=O)[C@H](C)NC(=O)[C@@H]1CCCN1C(=O)[C@H](CC(C)C)NC(=O)[C@H](C)NC(=O)[C@@H](NC(=O)[C@@H](NC(=O)[C@@H](NC(=O)[C@@H](NC(=O)[C@H](CCCCN)NC(=O)[C@H](CCCCN)NC(=O)[C@H](CC(C)C)NC(=O)[C@@H](NC(=O)[C@H](CCCCN)NC(=O)[C@@H](NC(=O)[C@H](CC(C)C)NC(=O)[C@H](CC(N)=O)NC(=O)[C@H](CCCCN)NC(=O)[C@@H](NC(=O)[C@H](Cc1ccccc1)NC(=O)[C@H](CO)NC(=O)[C@H](CCCCN)NC(=O)[C@H](Cc1c[nH]c2ccccc12)NC(=O)[C@@H](N)CCCCN)[C@@H](C)CC)[C@@H](C)O)C(C)C)C(C)C)C(C)C)[C@@H](C)O)[C@@H](C)O)C(=O)N[C@@H](CO)C(=O)O [MBI 29A2, KWKSFIKNLTKVLKKVVTTALPALIS] (H-KWKSFIKNLTKVLKKVVTTALPALIS-OH; N-terminus and C-terminus assumed) the “Peptide MI Alone” value (bacterial isolates; P. aeruginosa PA24 (Ciprofloxacin section)) was 64 µg/mL, the “Peptide MI Alone” value (bacterial isolates; S. aureus SA10 (Ciprofloxacin section)) was 4 µg/mL and the “Peptide MI Alone” value (bacterial isolates; S. aureus SA93 (Ciprofloxacin section)) was 2 µg/mL.
In the case of “G K P R P Y S P I P T S P R P I R Y [MBI 31]”, the Peptide MIC ([1]; S. aureus SA7796, pair Methicillin / MBI 31) was 16 µg/mL, the Peptide MIC ([1]; S. aureus SA7797, pair Methicillin / MBI 31) was 16 µg/mL and the Peptide MIC ([1]; S. aureus SA7823, pair Methicillin / MBI 31) was 0.5 µg/mL. The Peptide MIC ([1]; S. aureus SA7834, pair Methicillin / MBI 31) was 32 µg/mL, the Peptide MIC ([1]; S. aureus SA7835, pair Methicillin / MBI 31) was 16 µg/mL and the Peptide MIC [1, 2] was 0.5 µg/mL. The Peptide MIC [1, 3] was 0.5 µg/mL, the Peptide MIC [1, 4] was 0.5 µg/mL and the Peptide MIC [1, 5] was 0.5 µg/mL.
With I L K K F P F F P F R R K [MBI 11A1CN] the MIC (bacteria; A. calcoaceticus AC002) was 16 µg/mL, the MIC (bacteria; E. cloacae ECL007) was greater than 128 µg/mL and the MIC (bacteria; E. coli ECO002) was 32 µg/mL. For the same compound, the MIC (bacteria; E. faecalis EFS002) was 32 µg/mL, the MIC (bacteria; E. faecium EFM002) was 1 µg/mL and the MIC (bacteria; H. influenzae HIN002) was greater than 128 µg/mL. It also gave an MIC (bacteria; K. pneumoniae KP002) greater than 128 µg/mL, an MIC (bacteria; P. aeruginosa PA004) greater than 128 µg/mL and an MIC (bacteria; P. vulgaris SBPV1) greater than 128 µg/mL. For the same compound, the MIC (bacteria; S. aureus SA005) was 8 µg/mL, the MIC (bacteria; S. epidermidis SE002) was 16 µg/mL and the MIC (bacteria; S. maltophilia SMA002) was greater than 128 µg/mL. The MIC (bacteria; S. marcescens SBSM2) was greater than 128 µg/mL, the MIC (bacteria; S. pneumoniae SBSPN2) was greater than 128 µg/mL and the “Peptide MIC + Tobramycin” value ([1]; P. aeruginosa PA026) was 0.125 µg/mL. The “Ciprofloxacin MIC + Peptide” value ([1]; S. aureus SA10) was 0.125 µg/mL, the “Peptide MIC + Ciprofloxacin” value ([1]; S. aureus SA10) was 64 µg/mL and the “Ciprofloxacin MIC + Peptide” value ([1]; S. aureus SA25) was 0.125 µg/mL. The “Peptide MIC + Tobramycin” value ([1]; S. maltophilia SMA030) was 64 µg/mL, the “Tobramycin MIC + Peptide” value ([1]; S. maltophilia SMA030) was 2 µg/mL and the FIC ([1]; peptide + Ciprofloxacin, S. aureus SA25) was 0.53. The FIC ([1]; peptide + Tobramycin, S. maltophilia SMA029) was 0.16 and the FIC ([1]; peptide + Tobramycin, S. maltophilia SMA030) was 0.27.
In the case of I L K K W P W W P W R R [MBI 11G7CN], the “Peptide MIC + Piperacillin” value (bacterial isolates; A. calcoaceticus 3) was 2 µg/mL, the “Peptide MIC Alone” value (bacterial isolates; A. calcoaceticus 3) was 4 µg/mL and the “Piperacillin MIC + Peptide” value (bacterial isolates; A. calcoaceticus 3) was 4 µg/mL.
Compound L R W W W P W R R K [MBI 11G25CN] has an MIC (bacteria; A. calcoaceticus AC002, agarose dilution) of 2 µg/mL, an MIC (bacteria; E. cloacae ECL007, agarose dilution) greater than 128 µg/mL and an MIC (bacteria; E. coli ECO005, agarose dilution) of 8 µg/mL. The MIC (bacteria; E. faecalis EFS001, agarose dilution) was 2 µg/mL, the MIC (bacteria; E. faecalis EFS008, agarose dilution) was 16 µg/mL and the MIC (bacteria; K. pneumoniae KP001, agarose dilution) was 16 µg/mL. It also gave an MIC (bacteria; P. aeruginosa PA004, agarose dilution) of 64 µg/mL, an MIC (bacteria; S. aureus SA014, agarose dilution) of 2 µg/mL and an MIC (bacteria; S. aureus SA093, agarose dilution) of 1 µg/mL. For the same compound, the MIC (bacteria; S. epidermidis SE010, agarose dilution) was 2 µg/mL, the MIC (bacteria; S. maltophilia SMA002, agarose dilution) was 32 µg/mL and the MIC (bacteria; S. marcescens SMS003, agarose dilution) was greater than 128 µg/mL.
